Assay results as given in PubChem BioAssay (NCI).
“And” between values parts separate entries of the source, which are not always exact repeats. Equal entries are not always repeated.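 Following 48 hours of exposure in 96-well plates, responses at five concentrations were used to interpolate endpoints linearly. Abbreviation: GI50, concentration required for 50% inhibition of growth. TGI: concentration producing complete growth inhibition.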

Columns and labels:
Assay in all cases: NCI anticancer screen, dose series, 48 h
[1] = test system: NCI-H460 lung
[2] = test system: KM12 colon
[3] = test system: PC-3 prostate
[4] = test system: MOLT-4 leukemia
[5] = test system: OVCAR-8 ovarian
[6] = test system: SF-295 CNS
[7] = test system: HCT-15 colon
[8] = test system: COLO 205 colon
[9] = test system: HT29 colon
[10] = test system: HL-60(TB) leukemia
[11] = test system: MDA-MB-231 breast
[12] = test system: HOP-92 NSCLC
[13] = test system: A498 renal
[14] = test system: A549 NSCLC
[15] = test system: HS 578T breast
[16] = test system: MCF7 breast
[17] = test system: SW-620 colon
[18] = test system: HCC-2998 colon
[19] = test system: TK-10 renal
[20] = test system: M14 melanoma
[21] = test system: K-562 leukemia
[22] = test system: SK-OV-3 ovarian
[23] = test system: T-47D breast
[24] = test system: SF-539 CNS
[25] = test system: HOP-62 NSCLC
[26] = test system: OVCAR-3 ovarian
[27] = test system: SN12C renal
[28] = test system: NCI-H23 lung
[29] = test system: EKVX NSCLC

Q: What does the source list for `C[C@H](NC(=O)c1c(N)nn2cccnc12)c1cc2cccc(C#Cc3cnn(C)c3)c2c(=O)n1-c1ccccc1`?
A: GI50 [1]: 3.8 µM and 5.2 µM; TGI [1]: > 10 µM and 23.9 µM; GI50 [2]: 5.98 µM and 9.53 µM; TGI [2]: > 10 µM and 61.4 µM; GI50 [3]: 1.6 µM and 1.98 µM; TGI [3]: > 100 µM; GI50 [4]: 2.17 µM and 1.96 µM; TGI [4]: > 10 µM and 6.55 µM; GI50 [5]: > 10 µM and 12.6 µM; TGI [5]: > 100 µM; GI50 [6]: 2.52 µM and 2.47 µM; TGI [6]: > 10 µM and 15.6 µM; GI50 [7]: 2.69 µM and 4.68 µM; TGI [7]: > 10 µM and 26.4 µM; GI50 [8]: 4.41 µM and 1.8 µM; TGI [8]: > 10 µM and 5.23 µM; GI50 [9]: 2.31 µM and 4 µM; TGI [9]: > 10 µM and 43.3 µM; GI50 [10]: 0.774 µM and 0.813 µM; TGI [10]: > 10 µM and 9.86 µM; GI50 [11]: 5.98 µM and 12.3 µM; TGI [11]: > 10 µM and 54.1 µM; GI50 [12]: 0.524 µM and 1.41 µM; TGI [12]: 7.35 µM and 20.4 µM; GI50 [13]: 1.17 µM and 0.241 µM; TGI [13]: 8.24 µM and 1.79 µM; GI50 [14]: 8.92 µM and 4.98 µM; TGI [14]: > 10 µM and 30.2 µM; GI50 [15]: 1.83 µM and 1.26 µM; TGI [15]: > 10 µM and 46.3 µM; GI50 [16]: 1.1 µM and 1.01 µM; TGI [16]: > 10 µM and 87.7 µM; GI50 [17]: 3.14 µM and 11.9 µM; TGI [17]: > 10 µM and 61 µM; GI50 [18]: > 10 µM and 4.94 µM; TGI [18]: > 10 µM and 19.9 µM; GI50 [19]: 2.07 µM and 1.38 µM; TGI [19]: > 10 µM and 12.1 µM; GI50 [20]: > 10 µM and 11.8 µM; TGI [20]: > 10 µM and 30.9 µM; GI50 [21]: > 10 µM and 10.4 µM; TGI [21]: > 100 µM; GI50 [22]: 2.89 µM and 2.13 µM; TGI [22]: > 10 µM and 15.5 µM; GI50 [23]: 0.211 µM and 0.224 µM; TGI [23]: 1.91 µM and 3.88 µM; GI50 [24]: 3.33 µM and 3.36 µM; TGI [24]: > 10 µM and 16.4 µM; GI50 [25]: 8.58 µM; TGI [25]: > 10 µM; GI50 [26]: 4.27 µM and 4.6 µM; TGI [26]: > 10 µM and 27.1 µM; GI50 [27]: 4.09 µM and 6.47 µM; TGI [27]: > 10 µM and 43.4 µM; GI50 [28]: 4.99 µM and 11 µM; TGI [28]: > 10 µM and 24.7 µM; GI50 [29]: 9.84 µM and 4.67 µM
